Measured values reported in patent publication US20250011404A1, “TARGETING APOE ENHANCES T-CELL KILLING IN CANCER IMMUNOTHERAPY” (Children's National Medical Center, priority 2021, published 2025).
Entries after “also recorded” stand apart in the source; their conditions may differ.

How the values were obtained:
[1] = tested on: naïve C57/BL6 splenocytes co-cultured with immunogenic B16 tumor cells; assay: IFNγ ELISA, naïve splenocytes co-cultured with Myc-inhibited immunogenic B16 tumor cells; assay type: cell-based, mouse
Description: To further investigate the influence of tumor secreted apoE on immune cell function, immunogenic B16 tumor cells (B16 cells treated with Myc inhibitors (0.25 μM BET+0.25 μM JQ1 for 4 days) were irradiated at 60 Gray and co-cultured with naïve C57/BL6 splenocytes in the presence of either apoE mimetic COG133 at 0.3, 3 and 9 μM or anti-APOE blocking antibody at 1, 10 and 30 μg/ml concentrations. Prior work has shown the immunogenic effect of treating cancer cells with Myc inhibitors and irradiation. IFNγ production was quantified by ELISA at 48 h. Splenocytes produced high levels of IFNγ when co-cultured with Myc-inhibited immunogenic B16 cells as shown in FIGS. 3A-3C. Exposure of these cells to apoE mimetic COG133 repressed IFNγ production (6-fold reduction) (FIG. 3A), while the presence of Anti-APOE antibody enhanced IFNγ production (3-fold increase) (FIG. 3B). We also tested IFNγ production from vaccinated splenocytes following co-culture with treated and untreated B16 cells in the presence of COG 133. […] In addition to IFNγ, we also quantified other cytokine/chemokines using ProcartaPlex multiplex immunoassay. […]
WT and apoE^−/− mice or WT and lrp8^−/− mice, were inoculated with either WT B16 or apoE^−/− B16 cells, with anti-CTLA4 antibody on day 0. […] Readings were measured at 450 nm using the EnSpire 2300 Multilabel plate reader (Perkin Elmer, Waltham, Massachusetts, US).

[2] = tested on: vaccinated splenocytes from lrp8−/− mice; assay: Cytokine production of vaccinated splenocytes from lrp8−/− mice co-cultured with immunogenic B16 cells (ELISA, multiplex); assay type: cell-based, mouse
Text: To functionally define the role of the lrp8 receptor engagement in apoE suppression, vaccinated splenocytes from lrp8^−/− mice were isolated. These cells were co-cultured with BET/JQ1 treated (Myc-suppressed) immunogenic B16 cells for 48 hr with or without exposure to the apoE mimetic COG133. […] In addition, using ProcartaPlex multiplex immunoassay, we also quantified other cytokines/chemokines produced in the reaction. […] These included effector function: IFNγ; stimulator function, IL18, GM-CSF, G-CSF; inflammatory cytokines: IL2, IL3, IL4, IL5, IL9, IL13, IL23, IL12p70; chemo attractant factors: MCP-1, MCP3, MIP-1α, CCL-5 (Rantes); and regulatory factors: IL6, IL-10 (P<0.05). […] Cell culture supernatant was collected after centrifuge at 1,200 rpm for 10 min at 4° C. The concentrations of the following immune molecules were determined using the mouse Cytokine & Chemokine 36-plex ProcartaPlex Panel, a magnetic bead-based multiplex immunoassay (Thermo Scientific) following our previous protocol(19). Briefly, cell culture supernatant samples were mixed with antibody-linked polystyrene beads on a 96-well plate and incubated at room temperature (RT) for 2 h on an orbital shaker at 500 rpm. After washing, plates were incubated with biotinylated detection antibody for 30 min at RT. Plates were then washed twice and then labeled beads were resuspended in streptavidin-PE. Each sample was measured in duplicate along with standards (8-point dilutions) and the buffer control. Plates were read using a Luminex Bio-plex 200 system (Bio-Rad Corp.) for quantitative analysis. WT and apoE^−/− mice or WT and lrp8^−/− mice, were inoculated with either WT B16 or apoE^−/− B16 cells, with anti-CTLA4 antibody on day 0. These vaccinated splenocytes (VS) were harvested on day 7 and co-cultured with either WT B16 or apoE^−/− B16 cells for 48 hr, following which IFNγ levels in media were compared with ELISA assay. […] Readings were measured at 450 nm using the EnSpire 2300 Multilabel plate reader (Perkin Elmer, Waltham, Massachusetts, US).

COG133: a fragment of apoE peptide, which competes with the apoE holoprotein for binding the LDL receptors and acts as an apoE mimetic
splenocyte production of IFNγ in presence of COG133 ([1]; naïve and vaccinated splenocytes + BET/JQ1 treated B16 cells (FIG. 3A)): markedly reduced
IFNγ production, reduction ([1]; naïve splenocytes + Myc-inhibited irradiated B16 cells, COG133 at 0.3, 3 and 9 μM, ELISA at 48 h): 6 fold
detectable cytokines with pattern similar to IFNγ: inhibition in WT mice, reversed in lrp8−/− splenocytes ([2]; ProcartaPlex multiplex, with or without COG133, 48 hr): Seventeen out of 27
IFNγ production from lrp8−/− vaccinated splenocytes ([2]; co-culture with BET/JQ1 treated B16 cells 48 hr, with COG133): inhibitory effect was lacking; also recorded: suppression did not occur
IL-13, IL-4, IL22, IL18, MCP-1, RANTES and Gro-α, lrp8−/− vaccinated splenocytes ([2]; co-culture with Myc-inhibited B16 cells 48 hr, multiplex immunoassay (FIG. 18)): suppressive effect is diminished
